The values that follow are results of earlier work, collected in US20160120180A1, “COMPOSITIONS AND METHODS FOR CONTROLLING REPLANT DISEASES OF PERENNIAL CROPS” (Adjuvants Unlimited LLC, priority 2014, published 2016).

Data set [1] concerns Meloidogyne incognita. The settings on record: sprayed on plant foliage as a dilute emulsion.
The next data set deals with test plants. Particulars: emulsion applied to soil at 2 and 4 grams of fatty acid per square foot.
A further data set deals with nematodes. Particulars: soil-applied treatment on bermudagrass.
The test system of data set [2] is Meloidogyne incognita. The settings on record: in vitro.

Take `C=CCCCCCCCCC(=O)O` [undecylenic acid]: the “Systemic effects on nematodes” value in the data set with Meloidogyne incognita [1] is on record as “no systemic effects”. In addition, the “Effect on test plants (phytotoxicity)” value in the data set on test plants is “the test plants died”. For the same compound, the Nematode number entry in the data set on nematodes is on record as “reduction in nematode number”. For the same compound, the “Effect on isolated egg masses” value in the data set on Meloidogyne incognita [2] is listed as “destroyed isolated egg masses”.
